This is an account of results in paper PMC8815882, “Screening the pandemic response box identified benzimidazole carbamates, Olorofim and ravuconazole as promising drug candidates for the treatment of eumycetoma” (PLoS Neglected Tropical Diseases, 2022).

Read-outs that look alike come from different tables or passages of the source.

The experiment has as its system M. mycetomatis genome strain MM55. Kind of experiment: CLSI M38-A2 based in vitro susceptibility screening (XTT or resazurin), growth at fixed concentration. In kind it is cell-based, Madurella mycetomatis. Particulars: Madurella mycetomatis; for Percent fungal survival at 100 µM: read-out: Percentage survival at 100um, 100 uM A (second replicate column).
The mark [1] stands for this setting: mean of three replicates, read-out: Percentage survival at 25um, 25 uM mean.
Setting [2] is: replicate A, read-out: Percentage survival at 25um, 25 um A.
The mark [3] stands for this setting: replicate B, read-out: Percentage survival at 25um, 25 uM B.
Where [4] appears, read: replicate C, read-out: Percentage survival at 25um, 25 uM C.
[5] abbreviates: mean of three replicates, read-out: Percentage survival at 100um, 100 uM mean.
The mark [6] stands for this setting: replicate 1, read-out: Percentage survival at 100um, 100 uM A (first replicate column).
[7] abbreviates: replicate 3, read-out: Percentage survival at 100um, 100 uM A (third replicate column).
The mark [8] stands for this setting: first replicate column, read-out: Percentage survival at 100um, 100 uM A.
Setting [9] is: second replicate column, read-out: Percentage survival at 100um, 100 uM A.
Setting [10] is: third replicate column, read-out: Percentage survival at 100um, 100 uM A.
[11] abbreviates: mean of replicates, read-out: Percentage survival at 25um, 25 uM mean.
The mark [12] stands for this setting: mean of replicates, read-out: Percentage survival at 100um, 100 uM mean.
Where [13] appears, read: replicate 1, read-out: Percentage survival at 100um, 100 uM A.
[14] abbreviates: replicate 2, read-out: Percentage survival at 100um, 100 uM A.
Setting [15] is: replicate 3, read-out: Percentage survival at 100um, 100 uM A.
The mark [16] stands for this setting: mean, read-out: Percentage survival at 25um, 25 uM mean.
Where [17] appears, read: mean, read-out: Percentage survival at 100um, 100 uM mean.
Setting [18] is: replicate (first column), read-out: Percentage survival at 100um, 100 uM A.
Setting [19] is: replicate (second column), read-out: Percentage survival at 100um, 100 uM A.
The mark [20] stands for this setting: replicate (third column), read-out: Percentage survival at 100um, 100 uM A.
Where [21] appears, read: mean of replicates, MM55, read-out: Percentage survival at 25um, 25 uM mean.
[22] abbreviates: replicate A, MM55, read-out: Percentage survival at 25um, 25 um A.
[23] abbreviates: replicate B, MM55, read-out: Percentage survival at 25um, 25 uM B.
[24] abbreviates: replicate C, MM55, read-out: Percentage survival at 25um, 25 uM C.
The mark [25] stands for this setting: mean of replicates, MM55, read-out: Percentage survival at 100um, 100 uM mean.
The mark [26] stands for this setting: replicate 1, MM55, read-out: Percentage survival at 100um, 100 uM A.
Where [27] appears, read: replicate 2, MM55, read-out: Percentage survival at 100um, 100 uM A.
Where [28] appears, read: replicate 3, MM55, read-out: Percentage survival at 100um, 100 uM A.

Take `CCc1nc(N)nc(N)c1C#CCc1ccccc1` [MMV1581549]: the activity at 25 µM stood at 92.3% under setting [1], 59.8% under setting [2], 78.6% under setting [3] and 138% under setting [4]. In addition, the activity at 100 µM worked out at 2.68% under setting [5], 1.33% under setting [6] and 5.46% under setting [7]. The Percent fungal survival at 100 µM (replicate 2) is 1.24%.

With `CC(C)N(c1cc(-c2ccccc2)sc1C(=O)O)C(=O)[C@H]1CC[C@H](C)CC1` [MMV1634388], the activity at 25 µM by setting is: under setting [1], 90%; under setting [2], 89.7%; under setting [3], 99.2%; under setting [4], 81.2%. The activity at 100 µM worked out at 83.3% under setting [8], 76.1% under setting [5], 68.1% under setting [9] and 77% under setting [10].

In the case of `NC[C@H]1O[C@H](O[C@H]2[C@H](O)[C@@H](O[C@H]3O[C@H](CO)[C@@H](O)[C@H](N)[C@H]3O)[C@H](N)C[C@@H]2N)[C@H](N)C[C@@H]1O` [MMV002459], the activity at 25 µM reads like this: under setting [11], 86.6%; under setting [2], 96.5%; under setting [3], 69%; under setting [4], 94.3%. The activity at 100 µM under setting [12] stood at 63.3%, the activity at 100 µM under setting [13] is 89.3%, the activity at 100 µM under setting [14] is 40% and the activity at 100 µM under setting [15] was found to be 60.6%.

Regarding `O=C(Nc1ccc(-c2ccccc2)cc1)C1=C(O)C(Cc2ccccc2)OC1=O` (centres unmarked) [MMV1593531], the activity at 25 µM came out at 72.9% under setting [11], 71.9% under setting [2], 72% under setting [3] and 74.7% under setting [4]. Also, the activity at 100 µM is, setting by setting: under setting [12], 74.5%; under setting [13], 74.2%; under setting [14], 70.8%; under setting [15], 78.4%.

`Nc1cc(N)c2nc(-c3ccccc3)c(Nc3ccc(F)cc3)nc2c1` [MMV1581554]: the activity at 25 µM turned out to be 92.5% (mean of three, M. mycetomatis MM55, read-out: Percentage survival at 25um, 25 uM mean); 97.1% (replicate A, M. mycetomatis MM55, read-out: Percentage survival at 25um, 25 um A); 91.3% (replicate B, M. mycetomatis MM55, read-out: Percentage survival at 25um, 25 uM B); 89.3% (replicate C, M. mycetomatis MM55, read-out: Percentage survival at 25um, 25 uM C). The activity at 100 µM (mean of three, M. mycetomatis MM55, read-out: Percentage survival at 100um, 100 uM mean) was determined as 89.9%; the activity at 100 µM (replicate 1, M. mycetomatis MM55, read-out: Percentage survival at 100um, 100 uM A (first replicate column)) stood at 116%; the activity at 100 µM (replicate 3, M. mycetomatis MM55, read-out: Percentage survival at 100um, 100 uM A (third replicate column)) was determined as 73.1%. Besides, where the note is “replicate 2, M. mycetomatis MM55”, the Percent fungal survival at 100 µM was 80.3%.

For `OC(Cn1cncn1)(Cn1cncn1)c1ccc(F)cc1F` [MMV002337], the activity at 25 µM stood at 113% under setting [16], 137% under setting [2], 52.7% under setting [3] and 150% under setting [4]. Besides, the activity at 100 µM under setting [17] is 1.38%, the activity at 100 µM under setting [18] is -3.44%, the activity at 100 µM under setting [19] was 4.59% and the activity at 100 µM under setting [20] amounted to 3.01%.

With `Fc1ccc2c(/C=C/c3cccnc3)c[nH]c2c1` [MMV1578889], the activity at 25 µM stood at 76.9% under setting [16], 86.3% under setting [2], 56.6% under setting [3] and 87.7% under setting [4]. Moreover, the activity at 100 µM reads like this: under setting [17], 58.2%; under setting [18], 83.4%; under setting [19], 19.8%; under setting [20], 71.5%.

Take `CC(C)(C)c1ccc(Oc2ccc(N)cc2)cc1` [MMV1174026]: the activity at 25 µM by setting is: under setting [1], 74%; under setting [2], 108%; under setting [3], 51.8%; under setting [4], 62.2%. Moreover, the activity at 100 µM is -4.12% under setting [8], 2.41% under setting [5], 6.23% under setting [9] and 5.13% under setting [10].

Take `COc1ccc(NS(=O)(=O)c2ccc(Cl)s2)cn1` [MMV1580499]: the activity at 25 µM was determined as 85% under setting [1], 77.6% under setting [2], 91.2% under setting [3] and 86.3% under setting [4]. In addition, the activity at 100 µM came out at 64.6% under setting [8], 61.8% under setting [5], 69.9% under setting [9] and 50.9% under setting [10].

Take `CC(C)Oc1ccc(-n2cnc3cc(/C=C\c4ccc(C(C)(C)O)cc4)ccc32)cc1` [MMV1782350]: the activity at 25 µM runs as follows: under setting [21], 60.8%; under setting [22], 60%; under setting [23], 63%; under setting [24], 59.5%. Further, the activity at 100 µM worked out at 55.5% under setting [25], 57.8% under setting [26], 56.4% under setting [27] and 52.3% under setting [28].

Regarding `O=C(Cn1cnc2ccccc2c1=O)Nc1ccccc1` [MMV1578891], the activity at 25 µM came to 80.3% under setting [1], 84% under setting [2], 82.2% under setting [3] and 74.7% under setting [4]. Also, the activity at 100 µM is, setting by setting: under setting [5], 83.9%; under setting [6], 90.8%; under setting [7], 81.6%. Further, the Percent fungal survival at 100 µM (replicate 2) was determined as 79.4%.

On to `CCOc1ccc(C(=O)NCCc2ccccc2)cc1` [MMV124656], for which the activity at 25 µM was found to be 89.4% under setting [1], 88.1% under setting [2], 108% under setting [3] and 71.9% under setting [4]. Besides, the activity at 100 µM stood at 57.6% under setting [5], 63.4% under setting [6] and 60.4% under setting [7]. The Percent fungal survival at 100 µM (replicate 2) amounted to 48.9%.

Turning to `Cc1ccc(N2CCC(CCOc3ccc(S(C)(=O)=O)cc3)CC2)nn1` [MMV1634394], the activity at 25 µM runs as follows: under setting [1], 86.9%; under setting [2], 79.1%; under setting [3], 80.9%; under setting [4], 101%. Also, the activity at 100 µM stood at 52.8% under setting [8], 63.9% under setting [5], 75.2% under setting [9] and 63.7% under setting [10].

Take `COC(=O)Nc1nc2ccc([S+]([O-])c3ccccc3)cc2[nH]1` (centres unmarked) [MMV002565, Oxfendazole, reference compound]: the activity at 25 µM by setting is: under setting [16], 87.4%; under setting [2], 91.3%; under setting [3], 87.4%; under setting [4], 83.6%. Besides, the activity at 100 µM came out at 76.1% under setting [17], 83.9% under setting [18], 71.1% under setting [19] and 73.2% under setting [20].

Consider `C[C@@H](NC(=O)c1cccc(-c2c[nH]c(-c3cc4ccccc4cn3)n2)c1)c1ccc(F)cc1` [MMV1782211], for which the activity at 25 µM was 77% under setting [21], 80.9% under setting [22], 86% under setting [23] and 64.2% under setting [24]. The activity at 100 µM under setting [25] worked out at 70%, the activity at 100 µM under setting [26] came to 78.5%, the activity at 100 µM under setting [27] amounted to 73.3% and the activity at 100 µM under setting [28] stood at 58.3%.

As to `c1ccc(Cn2c(-c3ccccn3)nc3ccccc32)cc1` [MMV1578886], the activity at 25 µM reads like this: under setting [11], 60.6%; under setting [2], 64.1%; under setting [3], 69.2%; under setting [4], 48.7%. Moreover, the activity at 100 µM is, setting by setting: under setting [12], 7.34%; under setting [13], 12%; under setting [14], 5.19%; under setting [15], 4.84%.
